Reference: publication PMC3183052, “Immunoprotectivity of HLA-A2 CTL Peptides Derived from Respiratory Syncytial Virus Fusion Protein in HLA-A2 Transgenic Mouse” (PLoS ONE, 2011)

Columns and labels:
splenocytic CD4+ T cells = experiment: CFSE proliferation of CD4+ T cells after in vitro peptide restimulation; type: cell-based, mouse; conditions: mice immunized s.c. twice with 50 µg peptide in IFA; splenocytes restimulated with 10 µg/mL peptide for 8 days
Method: (§1) To screen the immunodominance of epitopic peptide in the induction of RSV-F specific Th1/Th2 expression, HLA-A*0201 transgenic C57BL/6 mice were anesthetized with isoflurane and immunized with 1×10^7 pfu/50 µL of rAd-F0 or rAd-LacZ or 1×10^4 live RSV B1 via the intranasal (i.n.) route. Twenty days later, the mice were given booster immunization i.n. with the same dose. After 10 days of boost, mice were sacrificed and splenocytes were isolated for the cytokine ELISPOT assay. […] Mice body weight was monitored daily.
(§2) The splenocytes were isolated, labeled with 5-(6)-carboxyfluorescein diacetate succinimidyl ester (CFSE) (Sigma-Aldrich) and stimulated in vitro with 10 µg/mL of the synthetic peptides for 4 or 8 days. Proliferation of splenocytic CD4^+ and CD8^+ T cells was analyzed by flow cytometry (BD FACSCalibur) using PE-Cy5-labeled specific antibody against CD4 (eBioscience) or CD8 (eBioscience), respectively. Cell division index (CDI), a ratio of CFSE-diluted CD4^+ or CD8^+ T cells stimulated by peptide to CFSE-diluted unstimulated CD4^+ or CD8^+ T cells, was calculated as shown below; [drawing 1] […]
(§3) Figure 2 Epitope-specific CD4^+ and CD8^+ T-cell activation in peptide-immunized HLA-A*0201 transgenic mice. […] Proliferation of CD4^+ (A) or CD8^+ (B) lymphocytes in response to the different CD8 epitopes was analyzed by flow cytometry using anti-CD4 or CD8 antibodies conjugated with PE-Cy5. […]

[1] = test system: splenocytes from HLA-A*0201 transgenic C57BL/6 mice; experiment: IL-2 ELISPOT of splenocytes restimulated with peptide; type: cell-based, mouse; conditions: for IL-2 ELISPOT, RSV: splenocytes of HLA-Tg B6 mice primed and boosted i.n. with 10^4 pfu RSV-B1; for IL-2 ELISPOT, RSV / IL-2 ELISPOT, rAd-F0: restimulated with 2 µg peptide, representative of two experiments, five mice per group; for IL-2 ELISPOT, rAd-F0: splenocytes of HLA-Tg B6 mice primed and boosted i.n. with 10^7 pfu rAd-F0; for IL-2 level in restimulated splenocytes (ELISPOT, text grading): splenocytes of rAd-F0- or RSV B1-primed and boosted HLA-Tg B6 mice, high = over 100 spots, moderate = over 50 spots
Method: (§4) To screen the immunodominance of epitopic peptide in the induction of RSV-F specific Th1/Th2 expression, HLA-A*0201 transgenic C57BL/6 mice were anesthetized with isoflurane and immunized with 1×10^7 pfu/50 µL of rAd-F0 or rAd-LacZ or 1×10^4 live RSV B1 via the intranasal (i.n.) route. Twenty days later, the mice were given booster immunization i.n. with the same dose. After 10 days of boost, mice were sacrificed and splenocytes were isolated for the cytokine ELISPOT assay. For peptide-based vaccination, transgenic mice were immunized subcutaneously (s.c.) with 50 µg of the individual synthetic peptides emulsified in 25 µL of incomplete Freund's adjuvant (IFA) (Sigma-Aldrich) and then boosted after 10 days s.c. with the same dose of the respective peptides mixed with IFA. Mice were sacrificed 7 days after the booster and splenocytes were isolated for in vitro peptide-restimulation. For challenge studies, 10^7 pfu of live RSV-B1 was administered i.n. seven days after the booster immunization with peptide vaccines. Mice were sacrificed on day 4 post-challenge and the lung tissues were collected and subjected to further analysis by flow cytometry, ELISA, CTL assay and immunohistochemistry. Mice body weight was monitored daily.
(§5) […] RBC-free splenocyte suspensions prepared from the individual mice were seeded in individual wells of 96-well filtration plates (Millipore) precoated with capturing monoclonal antibodies for murine IL-2, IL-4 or IFN-γ (0.5 µg/ well) (eBioscience) and blocked with conditioned medium (CM) for 1 hour at room temperature. The splenocytes were added with the individual RSV F 9-mer synthetic peptides (2 µg each) or GLC-9 dissolved in CM (100 µL). The splenocytes added with Con A (10 µg/mL) were used as positive control. Unstimulated splenocytes were used as negative control. The plates were kept in a 37°C incubator equilibrated with 5% CO2 for 48 hours. The individual wells of the ELISPOT plates were washed three times with washing buffer (0.05% tween20 in PBS, PBS-T), and then 0.2 µg of the corresponding biotinylated detection monoclonal antibodies specific for IL-2, IL-4 and IFN-γ were added to detect the respective cytokines. After 2 hours of incubation at room temperature, the plates were washed and 100 µl of streptavidin-alkaline phosphatase (1∶ 250 dilution) was added to the individual wells, and the plates were incubated at room temperature for 45 minutes. Finally, the plates were washed four times with the wash buffer, and 100 µl of AEC (3-amine-9-ethylcarbazole, Sigma-Aldrich) substrate was added to each well and allowed to react for 30 minutes at room temperature in the dark. The plates were then washed with water, air-dried overnight, and the spots per well were scored using the immunospot counting reader (C.T.L. IMMUNOSPOT, CELLULAR TECHNOLOGY LTD). Results were expressed as the number of cytokine-secreting cells per 5×10^5 splenocytes seeded in the initial culture.
(§6) Figure 1 Induction of IFN-γ and IL-2 in splenocytes from RSV F peptide immunized HLA-A*0201 transgenic mice upon secondary recall. Splenocytes harvested on day 30 from HLA-A-Tg B6 mice primed and boosted at 20 days interval intranasally with 10^7 pfu of rAd-F0 (□) or 10^4 pfu of RSV-B1 (▪)were restimulated with 2 µg of the individual RSV F peptide or 10 µg/ml Con A for 5 days in the presence of murine IL-2 . After stimulation, 5×10^5 splenocytes were seeded to anti-IFN-γ (A) or anti-IL-2 (B) capture antibody coated ELISPOT plates for 2 days for ELISPOT assay as described in Materials and Methods. Cytokine-positive immunospots were developed and the results are expressed as the number of immunospots +/−2 standard deviations for each experimental group. Data is representative of results derived from two independent experiments, each with five mice per group.

[2] = test system: splenocytes from HLA-A*0201 transgenic C57BL/6 mice; experiment: IFN-γ ELISPOT of splenocytes restimulated with peptide; type: cell-based, mouse; conditions: for IFN-γ ELISPOT, RSV: splenocytes of HLA-Tg B6 mice primed and boosted i.n. with 10^4 pfu RSV-B1; for IFN-γ ELISPOT, RSV / IFN-γ ELISPOT, rAd-F0: restimulated with 2 µg peptide, representative of two experiments, five mice per group; for IFN-γ ELISPOT, rAd-F0: splenocytes of HLA-Tg B6 mice primed and boosted i.n. with 10^7 pfu rAd-F0; for IFN-γ level in restimulated splenocytes (ELISPOT, text grading): splenocytes of rAd-F0- or RSV B1-primed and boosted HLA-Tg B6 mice, high = over 100 spots, moderate = over 50 spots
Method: as §4, §5, §6

splenocytic CD8+ T cells = experiment: CFSE proliferation of CD8+ T cells after in vitro peptide restimulation; type: cell-based, mouse; conditions: mice immunized s.c. twice with 50 µg peptide in IFA; splenocytes restimulated with 10 µg/mL peptide for 8 days
Method: as §1, §2, §3

HLA-A*0201 = target: T1, HLA-A*0201 (Homo sapiens, UniProt P04439, D140Y/D185E/D98H/E176V/E277Q/G131W/G231S/I119V/I121R/I166T/I218V/L300P/L318F/N151K/N90K/P208A/P217A/Q86G/Q94H/R138H/R169H/T345S); experiment: T2 cell-stabilization assay (T2-binding); conditions: for T2-binding Ratio of MFI: T2 cells 5×10^5, peptide 50 µg/mL + β2-microglobulin 5 µg/mL, 28°C 16–18 h, then brefeldin A 10 µg/mL 37°C 3 h, FITC anti-HLA-A2, flow cytometry, MFI relative to negative control HCV C55-74 (set as 1)
T1 construct: Human T2 cells (purchased from the American Type Culture Collection, ATCC) (ATCC No. CRL-1992) expressing the HLA-A*0201 gene; endogenous in cells; host or cells: human T2 cells (ATCC CRL-1992)
Method: T2 cells (5×10^5) cultured in 96-well U-bottom plates were incubated with the individual 9-mer synthetic peptides (50 µg/mL) and β2-microglobulin (5 µg/mL; Sigma-Aldrich) at 28°C for 16–18 hours. Subsequently, brefeldin A (10 µg/mL) was added and the cells were incubated at 37°C for another 3 hours, then washed and stained with fluorescence isothiocyanate (FITC)-conjugated mouse anti-human HLA-A2 antibody (SeroTec). Peptide-loaded T2 cells were acquired and analyzed on the FACScan flow cytometer using CellQuest software (Becton Dickinson). GLC-9 peptide was used as positive control (PC). The mean fluorescence intensity (MFI) represents the binding affinity of each peptide compared to MFI (set as MFI = 1) obtained from negative control (NC), which is T2 cells loaded with HCV peptide C55-74.
Twenty-five 9-mer synthetic peptides derived from the RSV F glycoprotein sequence presumed to encompass HLA-A*0201 binding motifs were synthesized (Table 1). Each was tested for its ability to bind HLA-A*0201 molecules by T2 cell-based binding assay (data not shown). The relative mean fluorescence intensity (MFI) obtained from the positive control (PC) peptide derived from Epstein-Barr virus capsid protein (GLC-9, a previously defined HLA-A*0201-restricted CTL epitope) was twofold (MFI = 1.96) compared to the baseline MFI = 1 obtained from the negative control (NC) treated with an unrelated peptide HCV C55-74 (a C57BL/6-specific CD4 epitope). […] The remaining peptides had no detectable binding to the HLA-A*0201 molecules. Apparently, the different MFIs generated by binding of RSV F-derived peptides to HLA-A*0201 reflects on the binding specificity of different peptides to a given HLA molecule.

| Substance | proliferation of CD4+ T cells (cell division index) (splenocytic CD4+ T cells) | IL-2 ELISPOT, RSV [1] | IL-2 ELISPOT, rAd-F0 [1] | IFN-γ ELISPOT, RSV [2] | IFN-γ ELISPOT, rAd-F0 [2] | proliferation of CD8+ T cells (cell division index) (splenocytic CD8+ T cells) | T2-binding Ratio of MFI (HLA-A*0201) | IFN-γ level in restimulated splenocytes (ELISPOT, text grading) [2] | binding affinity, MFI higher than the baseline (HLA-A*0201; T2 cell-based binding assay, baseline = negative control HCV C55-74, called modest binding affinity) [%] | IL-2 level in restimulated splenocytes (ELISPOT, text grading) [1] |
| --- | --- | --- | --- | --- | --- | --- | --- | --- | --- | --- |
| KIMTSKTDV [peptide 17, HLA-A*0201-restricted 9-mer synthetic peptide from F protein of RSV-B1 strain] | insignificant proliferation | 6.5 cytokine-secreting cells per 5×10^5 splenocytes | 24.5 cytokine-secreting cells per 5×10^5 splenocytes | 2.5 cytokine-secreting cells per 5×10^5 splenocytes | 24.5 cytokine-secreting cells per 5×10^5 splenocytes | could not induce proliferation | 0.95 | – | – | – |
| 6: HLA-A*0201-restricted 9-mer synthetic peptide from F protein of RSV-B1 strain (FLLGVGSAI) [compound 6] | – | 32 cytokine-secreting cells per 5×10^5 splenocytes | 29 cytokine-secreting cells per 5×10^5 splenocytes | 61.5 cytokine-secreting cells per 5×10^5 splenocytes | 65 cytokine-secreting cells per 5×10^5 splenocytes | – | 1.14 | over 50 spots | ~10 | – |
| 22: HLA-A*0201-restricted 9-mer synthetic peptide from F protein of RSV-B1 strain (VIIVILLSL) [compound 22] | – | 55 cytokine-secreting cells per 5×10^5 splenocytes | 21.5 cytokine-secreting cells per 5×10^5 splenocytes | 49 cytokine-secreting cells per 5×10^5 splenocytes | 88.5 cytokine-secreting cells per 5×10^5 splenocytes | – | 0.97 | over 50 spots | – | over 50 spots |
| LLWVLLLWV [peptide 2, HLA-A*0201-restricted 9-mer synthetic peptide from F protein of RSV-B1 strain] | – | 42 cytokine-secreting cells per 5×10^5 splenocytes | 34.5 cytokine-secreting cells per 5×10^5 splenocytes | 46.5 cytokine-secreting cells per 5×10^5 splenocytes | 46.5 cytokine-secreting cells per 5×10^5 splenocytes | – | 0.97 | over 50 spots | – | – |
| 15: HLA-A*0201-restricted 9-mer synthetic peptide from F protein of RSV-B1 strain (KLMSNNVQI) [compound 15] | – | 59.5 cytokine-secreting cells per 5×10^5 splenocytes | 37 cytokine-secreting cells per 5×10^5 splenocytes | 0 cytokine-secreting cells per 5×10^5 splenocytes | 39 cytokine-secreting cells per 5×10^5 splenocytes | – | 1.51 | – | – | over 50 spots |
